Data from US20070099877A1, “N-aryl-thienopyrimidin-4-amines and analogs as activators of caspases and inducers of apoptosis and the use thereof” (Cytovia, Inc., priority 2005, published 2007).
Structures can show the parent of a compound that is named as a salt.

Assays:
[1] = tested on: human colon cancer cell line HT29; experiment: Inhibition of cell proliferation (GI50) in HT29 cells; assay type: cell-based; settings: HT-29, Table III, 48 h
Protocol: Human breast cancer cell lines T-47D, MX-1 and MDAMB435, human colon cancer cell line HT29, and human lung cancer cell line H1299 were grown and harvested as in Example 75. An aliquot of […] of cells (4.4×10^4 cells/mL) was added to a well of a 96-well microtiter plate containing 5 μL of a 10% DMSO in RPMI-1640 media solution containing 10 nM to 100 μM of N-(2,5-dimethoxyphenyl)-2-methylthieno[3,2-d]pyrimidin-4-amine (1 nM to 10 μM final). An aliquot of 45 μL of cells was added to a well of a 96-well microtiter plate containing 5 μL of a 10% DMSO in RPMI-1640 media solution without compound as the control sample for maximal cell proliferation (Lmax). The samples were mixed by agitation and then incubated at 37° C. for 48 h in a 5% CO2-95% humidity incubator. After incubation, the samples were removed from the incubator and 25 μL of CellTiter-Glo™ reagent (Promega) was added. The samples were mixed by agitation and incubated at room temperature for 10-15 min. Plates were then read using a luminescent plate reader (Model SPECTRAfluor Plus, Tecan) to give Ltest values.
Baseline for GI50 (dose for 50% inhibition of cell proliferation) of initial cell numbers was determined by adding an aliquot of 45 μL of cells or 45 μL of media, respectively, to wells of a 96-well microtiter plate containing 5 μL of a 10% DMSO in RPMI-1640 media solution. The samples were mixed by agitation and then incubated at 37° C. for 0.5 h in a 5% CO2-95% humidity incubator. After incubation, the samples were removed from the incubator and 25 μL of CellTiter-Glo™ reagent (Promega) was added. The samples were mixed by agitation and incubated at 37° C. for 10-15 min at room temperature in a 5% CO2-95% humidity incubator. Fluorescence was read as above, (LStart) defining luminescence for initial cell number used as baseline in GI50 determinations.
GI50 (dose for 50% inhibition of cell proliferation) is the concentration where [(LTest−Lstart)/(LMax−Lstart)]=0.5.

[2] = tested on: human Burkitt's lymphoma cell line Namalwa; experiment: Caspase cascade activation in Namalwa cells; assay type: cell-based; settings: Burkitts lymphoma cell, 48 h, read-out: Caspase Activation Potency EC50 Namalwa

Row | GI50 [1] | EC50 [2] | SMILES
1 | 3.63 µM | – | COc1ccc(OC)c(Nc2ncnc3ccsc23)c1 [Example 2, N-(2,5-Dimethoxyphenyl)thieno[3,2-d]pyrimidin-4-amine]
2 | – | 0.356 µM | COc1cc(Nc2ncnc3ccsc23)cc(OC)c1 [Example 12, N-(3,5-Dimethoxyphenyl)thieno[3,2-d]pyrimidin-4-amine hydrochloride]
